The target of test [1] is T1, 5-hydroxytryptamine receptor 2C (Homo sapiens, UniProt P28335).
T1 sequence (P28335 whole entry): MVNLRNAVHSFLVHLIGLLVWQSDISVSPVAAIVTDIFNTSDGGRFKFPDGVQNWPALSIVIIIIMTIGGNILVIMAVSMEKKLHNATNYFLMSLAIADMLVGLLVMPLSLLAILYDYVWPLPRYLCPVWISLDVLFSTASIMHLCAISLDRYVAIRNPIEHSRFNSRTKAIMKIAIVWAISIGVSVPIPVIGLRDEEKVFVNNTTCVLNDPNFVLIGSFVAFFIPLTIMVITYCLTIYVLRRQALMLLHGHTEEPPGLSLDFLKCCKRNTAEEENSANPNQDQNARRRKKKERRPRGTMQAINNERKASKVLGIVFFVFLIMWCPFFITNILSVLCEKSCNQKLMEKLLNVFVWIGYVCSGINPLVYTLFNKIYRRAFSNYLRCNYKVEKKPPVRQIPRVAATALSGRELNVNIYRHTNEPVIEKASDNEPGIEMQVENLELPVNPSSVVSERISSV
As to the kind of experiment: DRUGMATRIX: Serotonin (5-Hydroxytryptamine) 5-HT2C radioligand binding (ligand: [3H] Mesulergine). The following applies: cho-k1; Not Active = under 50% inhibition at 10 µM. The class given is cell membranes, CHO-K1, Membrane.

Test [2] has as its target Vascular endothelial growth factor receptor 1 (Homo sapiens, UniProt P17948). The class given is cell-based. The following applies: huvec. Also: in other assays of this panel Not Active means under 50% inhibition at 10 µM.
Test [3] concerns the target C-C chemokine receptor type 2 (Homo sapiens, UniProt P41597). The class given is cell membranes, Membrane. The following applies: cho-k1. Also: in other assays of this panel Not Active means under 50% inhibition at 10 µM.
Test [4] addresses Prostaglandin G/H synthase 1 (Homo sapiens, UniProt P23219). In words: biochemical. The test is classed as tissue-based, Platelet.
Test [5] addresses cGMP-specific 3',5'-cyclic phosphodiesterase (Homo sapiens, UniProt O76074). In words: DRUGMATRIX: Phosphodiesterase PDE5 enzyme inhibition (substrate: [3H]cGMP + cGMP). The test is classed as tissue-based, Platelet. The following applies: platelet; Not Active = under 50% inhibition at 10 µM.
The target in the next test is T2, Interstitial collagenase (Homo sapiens, UniProt P03956).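 Also: MMP-1 enzyme inhibition assay using a peptide substrate; in other assays of this panel Not Active means under 50% inhibition at 10 µM.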
T2 sequence (P03956 whole entry): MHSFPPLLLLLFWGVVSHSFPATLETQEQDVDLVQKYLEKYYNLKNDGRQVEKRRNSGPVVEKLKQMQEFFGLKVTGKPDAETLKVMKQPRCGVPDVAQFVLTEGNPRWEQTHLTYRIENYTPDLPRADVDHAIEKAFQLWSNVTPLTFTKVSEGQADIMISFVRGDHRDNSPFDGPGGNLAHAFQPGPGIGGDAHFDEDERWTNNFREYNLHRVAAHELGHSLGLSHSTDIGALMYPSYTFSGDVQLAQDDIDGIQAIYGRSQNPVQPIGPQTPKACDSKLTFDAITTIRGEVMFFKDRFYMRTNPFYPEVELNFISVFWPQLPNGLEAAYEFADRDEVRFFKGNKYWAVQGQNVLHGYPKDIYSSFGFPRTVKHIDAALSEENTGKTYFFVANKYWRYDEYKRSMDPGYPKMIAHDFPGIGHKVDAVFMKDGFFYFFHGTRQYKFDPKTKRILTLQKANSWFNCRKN
As to the kind of experiment: biochemical. The test is classed as tissue-based, Rheumatoid synovial fibroblasts.

Test [6] concerns the target Tyrosine-protein kinase Lck (Homo sapiens, UniProt P06239). As to the kind of experiment: DRUGMATRIX: Protein Tyrosine Kinase, LCK enzyme inhibition (substrate: Poly(Glu:Tyr)). To be noted: insect cells, Not Active = under 50% inhibition at 10 µM. The class given is cell-based, Insect cells.

In general, IC50 refers to the midpoint of a concentration-inhibition curve.

Sequence of Prostaglandin G/H synthase 1 (P23219 whole entry): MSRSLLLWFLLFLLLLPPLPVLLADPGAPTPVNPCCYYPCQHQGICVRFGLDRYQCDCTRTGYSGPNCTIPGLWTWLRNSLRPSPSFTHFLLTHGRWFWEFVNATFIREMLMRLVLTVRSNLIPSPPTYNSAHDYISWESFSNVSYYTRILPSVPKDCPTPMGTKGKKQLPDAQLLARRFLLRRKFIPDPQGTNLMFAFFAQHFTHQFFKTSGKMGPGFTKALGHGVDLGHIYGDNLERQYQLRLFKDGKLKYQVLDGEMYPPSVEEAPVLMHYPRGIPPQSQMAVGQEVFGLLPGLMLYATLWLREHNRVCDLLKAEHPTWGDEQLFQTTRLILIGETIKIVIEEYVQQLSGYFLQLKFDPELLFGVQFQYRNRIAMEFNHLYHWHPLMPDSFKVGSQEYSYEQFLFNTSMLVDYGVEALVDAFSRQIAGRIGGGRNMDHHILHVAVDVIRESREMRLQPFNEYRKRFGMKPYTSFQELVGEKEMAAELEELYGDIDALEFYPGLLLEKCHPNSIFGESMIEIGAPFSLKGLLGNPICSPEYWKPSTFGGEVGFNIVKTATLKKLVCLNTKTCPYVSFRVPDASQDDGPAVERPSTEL
Sequence of Vascular endothelial growth factor receptor 1 (P17948 whole entry): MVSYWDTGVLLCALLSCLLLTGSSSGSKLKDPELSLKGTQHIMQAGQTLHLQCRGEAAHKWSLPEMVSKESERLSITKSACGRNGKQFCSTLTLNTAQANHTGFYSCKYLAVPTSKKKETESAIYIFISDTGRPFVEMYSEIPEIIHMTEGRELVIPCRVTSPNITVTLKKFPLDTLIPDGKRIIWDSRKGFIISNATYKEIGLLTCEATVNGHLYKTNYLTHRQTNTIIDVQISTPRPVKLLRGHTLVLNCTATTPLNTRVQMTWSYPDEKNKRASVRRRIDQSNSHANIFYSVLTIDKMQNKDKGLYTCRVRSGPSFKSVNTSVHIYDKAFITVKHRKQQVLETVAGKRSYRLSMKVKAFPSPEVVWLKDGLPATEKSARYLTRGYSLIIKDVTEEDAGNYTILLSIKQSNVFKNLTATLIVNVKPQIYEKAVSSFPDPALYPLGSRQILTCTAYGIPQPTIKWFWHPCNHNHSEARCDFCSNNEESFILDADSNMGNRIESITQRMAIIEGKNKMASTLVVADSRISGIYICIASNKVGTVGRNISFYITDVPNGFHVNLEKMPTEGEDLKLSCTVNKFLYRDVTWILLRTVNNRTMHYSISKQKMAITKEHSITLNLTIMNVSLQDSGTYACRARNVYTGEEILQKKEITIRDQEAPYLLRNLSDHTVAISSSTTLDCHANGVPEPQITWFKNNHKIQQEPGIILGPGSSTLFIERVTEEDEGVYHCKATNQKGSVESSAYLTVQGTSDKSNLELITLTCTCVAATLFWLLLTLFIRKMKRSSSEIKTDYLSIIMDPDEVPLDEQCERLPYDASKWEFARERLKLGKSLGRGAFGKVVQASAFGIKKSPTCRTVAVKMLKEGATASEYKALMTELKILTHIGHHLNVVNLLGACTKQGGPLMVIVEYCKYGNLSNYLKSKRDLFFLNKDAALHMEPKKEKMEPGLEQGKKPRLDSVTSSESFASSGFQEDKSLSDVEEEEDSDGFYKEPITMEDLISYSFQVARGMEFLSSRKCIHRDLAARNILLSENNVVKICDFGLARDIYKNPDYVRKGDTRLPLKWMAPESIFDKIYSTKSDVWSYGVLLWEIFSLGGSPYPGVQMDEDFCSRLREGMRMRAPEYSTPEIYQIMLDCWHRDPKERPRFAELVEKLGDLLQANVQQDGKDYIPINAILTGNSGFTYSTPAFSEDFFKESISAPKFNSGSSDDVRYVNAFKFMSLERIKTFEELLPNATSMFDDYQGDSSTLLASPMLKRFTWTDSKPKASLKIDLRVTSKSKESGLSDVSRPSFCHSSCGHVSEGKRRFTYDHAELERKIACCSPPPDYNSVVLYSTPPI
Sequence of Tyrosine-protein kinase Lck (P06239 whole entry): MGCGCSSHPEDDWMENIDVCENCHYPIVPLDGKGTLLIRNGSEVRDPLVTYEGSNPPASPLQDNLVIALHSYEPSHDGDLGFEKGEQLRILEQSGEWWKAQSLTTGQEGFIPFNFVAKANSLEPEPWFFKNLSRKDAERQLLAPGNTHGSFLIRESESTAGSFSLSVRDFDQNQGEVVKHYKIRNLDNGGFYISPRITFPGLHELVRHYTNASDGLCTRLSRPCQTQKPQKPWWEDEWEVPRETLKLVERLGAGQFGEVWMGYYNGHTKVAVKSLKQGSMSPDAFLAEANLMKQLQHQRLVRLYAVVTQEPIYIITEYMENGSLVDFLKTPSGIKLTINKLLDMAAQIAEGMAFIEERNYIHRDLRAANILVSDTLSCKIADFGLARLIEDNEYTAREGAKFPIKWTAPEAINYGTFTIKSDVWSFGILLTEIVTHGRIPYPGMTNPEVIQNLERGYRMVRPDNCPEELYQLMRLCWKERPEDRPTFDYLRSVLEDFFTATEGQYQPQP
Sequence of C-C chemokine receptor type 2 (P41597 whole entry): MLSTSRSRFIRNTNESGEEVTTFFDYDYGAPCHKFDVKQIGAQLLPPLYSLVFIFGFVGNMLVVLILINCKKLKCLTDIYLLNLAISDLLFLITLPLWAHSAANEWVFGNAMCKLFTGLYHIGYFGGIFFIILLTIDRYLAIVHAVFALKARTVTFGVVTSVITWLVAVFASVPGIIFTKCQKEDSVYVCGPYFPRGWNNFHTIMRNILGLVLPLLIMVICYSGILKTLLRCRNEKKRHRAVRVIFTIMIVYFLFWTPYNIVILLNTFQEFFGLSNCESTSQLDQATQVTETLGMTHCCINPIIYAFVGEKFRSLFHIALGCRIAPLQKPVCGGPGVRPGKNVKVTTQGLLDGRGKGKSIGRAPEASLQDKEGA

For `Oc1ccc2c3c1O[C@H]1[C@@H](O)CC[C@@]4(O)[C@@H](C2)N(CC2CCC2)CC[C@]314` [NALBUPHINE], the IC50 result (in test [1]; in test [2]; in test [3]; in test [4] (platelet); in test [5]; against Interstitial collagenase) was “Not Active” each time. In test [6], the IC50 result is reported as “Not Active”.
As to `C[C@]12C=CC(=O)C=C1CC[C@@H]1[C@@H]2C(=O)C[C@@]2(C)[C@H]1CC[C@]2(O)C(=O)CO` [PREDNISONE], the 50% inhibitory concentration (IC50) entry (in test [1]; in test [2]; in test [3]; in test [4] (platelet); in test [5]; against Interstitial collagenase) was “Not Active” throughout. The IC50 entry in test [6] was “Not Active”.
Take `COC(=O)[C@H]1[C@H]2C[C@@H]3c4[nH]c5cc(OC)ccc5c4CCN3C[C@H]2C[C@@H](OC(=O)c2cc(OC)c(OC)c(OC)c2)[C@@H]1OC` [RESERPINE]: the IC50 entry (in test [1]; in test [2]; in test [3]; in test [4] (platelet); in test [5]; on Interstitial collagenase) was “Not Active” in each case. Also, the IC50 entry in test [6] was “Not Active”.
Turning to `O=C(O)c1ccccc1O` [SALICYLIC ACID], the IC50 result (in test [1]; in test [2]; in test [3]; in test [4] (platelet); in test [5]; against Interstitial collagenase) was “Not Active” in each case. In addition, the concentration for half-maximal inhibition (IC50) result in test [6] was “Not Active”.
Consider `CC1CCC(NC(=O)N(CCCl)N=O)CC1` (stereo not given) [SEMUSTINE], for which the IC50 entry (in test [1]; in test [2]; in test [3]; in test [4] (platelet); in test [5]; at Interstitial collagenase) was “Not Active” throughout. Further, the IC50 entry in test [6] is recorded as “Not Active”.
For the compound `O=C1C[C@@H]2OCC=C3CN4CC[C@]56c7ccccc7N1[C@H]5[C@H]2[C@H]3C[C@H]46` [STRYCHNINE], the IC50 result (in test [1]; in test [2]; in test [3]; in test [4] (platelet); in test [5]; against Interstitial collagenase) was “Not Active” each time. Also, the IC50 entry in test [6] is given as “Not Active”.
Consider `C[N+](C)(C)CCOC(=O)CCC(=O)OCC[N+](C)(C)C.[Cl-].[Cl-]` [SUCCINYLCHOLINE CHLORIDE], for which the IC50 result (in test [1]; in test [2]; in test [3]; in test [4] (platelet); in test [5]; at Interstitial collagenase) was “Not Active” in each case. For the same compound, the concentration for half-maximal inhibition (IC50) entry in test [6] is given as “Not Active”.
Take `Nc1ccc(S(=O)(=O)NC(=O)c2ccccc2)cc1` [SULFABENZAMIDE]: the IC50 result (in test [1]; in test [2]; in test [3]; in test [4] (platelet); in test [5]; at Interstitial collagenase) was “Not Active” throughout. Also, the IC50 result in test [6] was “Not Active”.
For the compound `CCCCCCCCNC(C)C(O)c1ccc(SC(C)C)cc1` (stereo not given) [SULOCTIDIL], the IC50 result (in test [1]; in test [2]; in test [3]; in test [4] (platelet); in test [5]; on Interstitial collagenase) was “Not Active” throughout. The IC50 entry in test [6] is on record as “Not Active”.
Take `O=c1[nH]c(=O)n(C2CCCO2)cc1F` (stereo not given) [TEGAFUR]: the IC50 result (in test [1]; in test [2]; in test [3]; in test [4] (platelet); in test [5]; on Interstitial collagenase) was “Not Active” each time. In test [6], the IC50 entry is “Not Active”.
With `CC(=N)S` [THIOACETAMIDE], the IC50 entry (in test [1]; in test [2]; in test [3]; in test [4] (platelet); in test [5]; against Interstitial collagenase) was “Not Active” throughout. The IC50 entry in test [6] was “Not Active”.
With `Cc1ccc(C(=O)c2ccc(CC(=O)O)n2C)cc1` [TOLMETIN], the IC50 result in test [1] was “Not Active”; in test [2] it was “Not Active”; in test [3] it was “Not Active”; in test [4] (read-out: IC50), 0.041 µM; in test [5] it was “Not Active”; against Interstitial collagenase, “Not Active”. Besides, the half-maximal inhibitory concentration (IC50) result in test [6] is “Not Active”.
Turning to `CC(=O)OCC(COC(C)=O)OC(C)=O` [TRIACETIN], the IC50 entry (in test [1]; in test [2]; in test [3]; in test [4] (platelet); in test [5]; on Interstitial collagenase) was “Not Active” throughout. The IC50 result in test [6] is “Not Active”.
As to `CN1CCN(CCCN2c3ccccc3Sc3ccc(C(F)(F)F)cc32)CC1` [TRIFLUOPERAZINE], the IC50 entry (in test [1]; in test [2]; in test [3]; in test [4] (platelet); in test [5]; against Interstitial collagenase) was “Not Active” in each case. Besides, in test [6], the IC50 entry is recorded as “Not Active”.
Turning to TRANSPLATIN, the IC50 result (in test [1]; in test [2]; in test [3]; in test [4] (platelet); in test [5]; at Interstitial collagenase) was “Not Active” in each case. Also, in test [6] (read-out: IC50), the IC50 was found to be 2.72 µM. The Ki result (in test [1]; in test [2]; in test [3]; in test [4] (platelet); in test [5]; at Interstitial collagenase) was “Not Active” each time.
As to ZIRCONIUM(IV) CHLORIDE, the IC50 entry (in test [1]; in test [2]; in test [3]; in test [4] (platelet); in test [5]; against Interstitial collagenase) was “Not Active” throughout. In addition, the IC50 result in test [6] was “Not Active”. Also, the Ki result (in test [1]; in test [2]; in test [3]; in test [4] (platelet); in test [5]; on Interstitial collagenase) was “Not Active” in each case. Besides, the Ki result in test [6] is “Not Active”.

For the origin of these results see ChEMBL document CHEMBL1909046, “DrugMatrix in vitro pharmacology data”.
